In ChEMBL document CHEMBL4610074, “Somuncurins: Bioactive Peptides from the Skin of the Endangered Endemic Patagonian Frog Pleurodema somuncurense” (J Nat Prod, 2020):
Active and inactive are the calls of the source. No cut-off for these calls is given here.

What was measured:
Escherichia coli = experiment: Antibacterial activity against Escherichia coli ATCC 25922 incubated for 24 hrs under aerobic condition; format: functional; details: ATCC 25922, 24 h
Staphylococcus aureus = experiment: Antibacterial activity against Staphylococcus aureus ATCC 29213 incubated for 24 hrs under aerobic condition; format: functional; details: ATCC 29213, 24 h
[1] = Effect on LPS-induced ROS production in human CHME3 cells measured for 30 mins by microscopic method; format: ADME, cell-based; details: 0.5 h
Lipid bilayer [2] = experiment: Induction of rearrangement in Escherichia coli lipid extract large unilamellar vesicles assessed as altered colloidal property at 140 ug/ml to 640 ug/ml by dynamic light scattering analysis; format: functional
Lipid bilayer [3] = experiment: Induction of membrane disruption in PC/bovine brain SPM/cholesterol large unilamellar vesicles assessed as carboxyfluorescein leakage at 640 ug/ml by fluorescence assay
Lipid bilayer [4] = experiment: Binding affinity to Escherichia coli lipid extract large unilamellar vesicles incubated for 30 mins by laser-doppler technique
Lipid bilayer [5] = experiment: Induction of pore formation in Escherichia coli lipid extract giant unilamellar vesicles at 640 ug/ml after 25 mins by fluorescence confocal microscopy; format: functional
Lipid bilayer [6] = experiment: Induction of membrane disruption in Escherichia coli lipid extract large unilamellar vesicles assessed as carboxyfluorescein leakage at 640 ug/ml by fluorescence assay; format: functional
[7] = (§1) Hemolytic activity in human RBC at 180 uM measured after 1 hr relative to control; format: ADME, cell-based, Erythrocyte; details: red blood cells (erythrocytes), read-out: Activity
Lipid bilayer [8] = experiment: Binding affinity to Escherichia coli lipid extract large unilamellar vesicles assessed as change in tryptophan emission Spectra incubated for 30 mins by spectrofluorometric method
Lipid bilayer [9] = experiment: Induction of lipid aggregation in Escherichia coli lipid extract large unilamellar vesicles at 270 ug/ml by dynamic light scattering analysis; format: functional
[10] = Cytotoxicity against human MDM cells after 24 hrs by resazurin dye based fluorescence assay; format: cell-based
Lipid bilayer [11] = experiment: Induction of lipid aggregation in PC/bovine brain SPM/cholesterol large unilamellar vesicles at 140 ug/ml to 640 ug/ml by dynamic light scattering analysis
Lipid bilayer [12] = experiment: Induction of membrane disruption in Escherichia coli lipid extract large unilamellar vesicles assessed as carboxyfluorescein leakage at 250 ug/ml by fluorescence assay; format: functional
Erythrocyte = experiment: as §1; format: ADME, cell-based; details: erythrocyte, 1 h, 180 µM

Substance | MIC (Escherichia coli) | MIC (Staphylococcus aureus) | Activity (Lipid bilayer [4]) [mV] | Activity [10] | other results
H-FIIWPLRYRK-NH2 | 180 µM | 360 µM | 36 | Non-Toxic | Activity [1]: Non-Toxic; Activity (Lipid bilayer [2]): Active; Activity (Lipid bilayer [3]): 20%; Activity (Lipid bilayer [5]): inactive; Activity (Lipid bilayer [6]): 100%; hemolysis at 1 h, 180 µM [7]: < 5%; Activity (Lipid bilayer [8]): inactive; Activity (Lipid bilayer [9]): Active; Activity (Lipid bilayer [11]): Non-Toxic; Activity (Lipid bilayer [12]): Active
H-NLVGSLLGGILKK-NH2 | 460 µM | > 700 µg/mL | 18 | Non-Toxic | Activity (Erythrocyte): Non-Toxic
H-NNEENELRRRVSFNRAVIHSLLG-NH2 | > 700 µg/mL | > 700 µg/mL |  |  | 
H-VSFNRAVIHSLLG-NH2 | > 700 µg/mL | > 700 µg/mL |  |  | 
H-YYQVSEERRRDLASLARLYALAR-NH2 | > 700 µg/mL | > 700 µg/mL |  |  | 

Further lines, with some results ahead:

MIC (Escherichia coli) | MIC (Staphylococcus aureus) | Activity (Lipid bilayer [4]) [mV] | Substance | Activity [10] | other results
> 700 µg/mL | > 700 µg/mL |  | H-DLASLARLYALAR-NH2 |  | 
> 700 µg/mL | > 700 µg/mL |  | H-DLLNGLLNPVLGIANGLTGGLVKK-NH2 |  | 
410 µM | > 700 µg/mL | 23 | H-FILKRSYPQYY-NH2 | Non-Toxic | Activity [1]: Non-Toxic; Activity (Erythrocyte): Non-Toxic
